According to PMC10147685, “Safety, tolerability, and pharmacokinetics of Aurora kinase B inhibitor AZD2811: a phase 1 dose-finding study in patients with advanced solid tumours” (British Journal of Cancer, 2023):

Columns and labels:
[1] = system: animal models of SCLC and diffuse large B-cell lymphoma (DLBCL); design: method as in PMID 26865565, PMID 30872381; details: at half the dose intensity of barasertib; cited from earlier work
advanced solid tumours = test: Preliminary antitumour activity (RECIST v1.1 best overall response); format: in vivo, human
Procedure: (§1) AEs were assessed throughout the treatment and follow-up periods. Patients were followed until all treatment-related toxicity resolved, or for at least 30 days post-study drug discontinuation. AEs were graded according to CTCAE v4.03. Venous blood samples (4 mL) for measurement of AZD2811 concentrations were collected at Cycle 1 Days 1–6, 8, 15, 16, and 22 and Cycle 2 Day 1 in Cohorts 1–6; Cycle 1 Days 1, 4, 8, 12, and 22 in Cohort 7; Cycle 1 Days 1, 4, 8, 12, and 15 and Cycle 2 Day 1 in Cohorts 8–12. Tumour imaging assessments using computed tomography or magnetic resonance imaging of the chest and abdomen/pelvis were performed at screening (≤28 days prior to initiation of treatment), and then every 2 cycles.
The primary objective was to evaluate the safety profile and determine the MTD/RP2D and schedule of AZD2811 by assessing the incidence of DLTs, AEs, and abnormal laboratory test results. Secondary objectives were evaluation of PK parameters and preliminary assessment of antitumour activity, including objective response rate (ORR [complete response + partial response (CR + PR)]) based on RECIST v1.1, and incidence of best overall response, stable disease (SD) and progressive disease (PD).
(§2) The safety analysis set comprised all patients who received at least one dose of AZD2811. The PK analysis set comprised all patients who received at least one dose of AZD2811 with at least one reportable concentration. […] There was no formal statistical analysis of safety and efficacy data. The numbers of patients experiencing each AE were summarised by Medical Dictionary for Regulatory Activities (MedDRA) version 22.1 system organ class, MedDRA preferred term, and CTCAE grade. The ORR and best overall response based on RECIST 1.1 were summarised. AZD2811 blood concentrations and derived PK parameters were summarised by dose regimen. Summary statistics were calculated for area under the curve (AUC), time of maximum concentration (tmax), and maximum concentration after a single dose (Cmax).

LS- or ES-SCLC = details: cited from earlier work
[2] = system: patients with advanced solid tumours; test: Phase 1 dose-escalation: safety, DLTs, AEs (CTCAE v4.03); format: in vivo
Procedure: AZD2811 was administered as an IV infusion over 2 h. The study included 12 dose-escalation cohorts. In Cohorts 1–6, dosing took place on Days 1 and 4 of a 28-day cycle, at 15 mg, 25 mg, 38 mg, 51 mg, 100 mg, and 200 mg. In Cohort 1, the starting dose was to be administered to a single patient on Days 1 and 4. […] Starting with Cohort 2, at least 3 evaluable patients were enrolled at each dose level (3 + 3 design) and were evaluated for 1 cycle before escalation to the next dose level. If one patient experienced a DLT, an additional 3 patients were treated with the same dose. Therefore, a maximum of 6 evaluable patients could be enrolled per dose level.
In Cohort 7, the Day 4 dose was removed from the schedule, and patients received AZD2811 200 mg on Day 1 of a 28-day cycle. Granulocyte colony-stimulating factor (G-CSF; filgrastim [short-acting G-CSF] or pegfilgrastim [long-acting G-CSF]) as primary prophylaxis for neutropenia was optional in Cohorts 7–9. In Cohorts 8–12, the cycle length was reduced, so dosing occurred on Day 1 of a 21-day cycle, at doses of 200–600 mg. Patients in Cohorts 10–12 received mandatory G-CSF on Day 8 after dosing in Cycle 1 as primary prophylaxis for neutropenia. PEGylated G-CSF (e.g. pegfilgrastim) could not be given later than Day 8 (in a 21-day cycle) due to its long half-life. G-CSF had to be discontinued at least 48 h prior to the next dose of AZD2811.
A DLT was defined as any of the following toxicities that occurred during the DLT evaluation period (the first 28 days [if a 28-day cycle] or the first 21 days [if a 21-day cycle] from the start of AZD2811), unless unequivocally due to underlying malignancy or an extraneous cause: grade 4 neutropenia for >7 days or febrile neutropenia; grade 4 thrombocytopenia or grade 3 thrombocytopenia associated with bleeding; concurrent grade ≥3 elevation of total bilirubin, alanine aminotransferase (ALT), aspartate aminotransferase (AST) or alkaline phosphatase (ALP) lasting >48 h, or any change in liver function test results consistent with Hy’s Law; any grade ≥3 non-haematological AE (except grade 3 nausea, vomiting, stomatitis and/or diarrhoea that was controlled within 4 days with standard supportive care, or grade 3 elevations in ALT/AST that return to meet initial eligibility criteria within 7 days of study drug interruption); inability to receive all doses in Cycle 1 due to treatment-related toxicity; or grade ≥2 non-haematological toxicity at any time during treatment that was deemed to be dose-limiting by the investigator and the medical monitor.
as §1
as §2, with “Summary statistics were calculated for area under the curve (AUC), time of maximum concentration (tmax), and maximum concentration after a single dose (Cmax).” left out

## CCN(CCO)CCCOc1ccc2c(Nc3cc(CC(=O)Nc4cccc(F)c4)n[nH]3)ncnc2c1 [AZD2811, AZD1152 hydroxyquinazoline pyrazole anilide]
[1]
  Efficacy and toxicity compared with barasertib: greater efficacy and less toxicity
Advanced solid tumours; 1 patient with cancer of pancreaticobiliary origin in Cohort 8
  Duration of SD: 66 weeks
Advanced solid tumours; Cohorts 1–6
  Treatment discontinuation due to progressive disease: 83.3%
Advanced solid tumours; Cohorts 7–12
  Treatment discontinuation due to progressive disease: 81.5%
Advanced solid tumours; Total (N = 51)
  Best overall response: Not evaluable: 5 (9.8) n (%)
  Best overall response: Not evaluable, Incomplete post-baseline assessments: 4 (7.8) n (%)
  Best overall response: Not evaluable, Stable disease <2 cycles: 1 (2.0) n (%)
  Best overall response: Progressive disease: 22 (43.1) n (%)
  Best overall response: Progressive disease, Death: 3 (5.9) n (%)
  Best overall response: Progressive disease, RECIST progression: 19 (37.3) n (%)
Advanced solid tumours; Total (N = 51), two cycles = 56 days in 28-day cycles, 42 days in 21-day cycles
  Best overall response: Stable disease ≥2 cycles: 23 (45.1) n (%)
Advanced solid tumours; all cohorts
  Complete responses (CRs): no CRs
Advanced solid tumours; all cohorts, n = 1 of 51
  Best overall response: partial response, patients: 2.0%
Advanced solid tumours; evaluable-for-efficacy analysis set, Total (N = 51), all cohorts
  Best overall response: Partial response: 1 (2.0) n (%)
Advanced solid tumours; patient with adenocarcinoma of the breast in Cohort 7, best overall response SD
  Longest duration of therapy: > 17 months
Advanced solid tumours; patient with prostate cancer in Cohort 6 with a PR
  Reduction from baseline in sum of target lesion diameters: 80%
LS- or ES-SCLC; 200 mg AZD2811 on Days 1 and 4 every 28 days, 5/15 patients
  Patients with SD: 33.3%
LS- or ES-SCLC; 200 mg AZD2811 on Days 1 and 4 every 28 days, 15 patients
  Objective responses: no objective responses
LS- or ES-SCLC; without prophylactic G-CSF, 1 of 15 patients
  Septic shock due to pneumonia with grade 4 neutropenia, patients: 6.7%
LS- or ES-SCLC; without prophylactic G-CSF, 6 of 15 patients
  Febrile neutropenia, patients: 40.0%
LS- or ES-SCLC; without prophylactic G-CSF, 9/15 patients
  Target-related grade ≥3 neutropenia, patients: 60.0%
[2]; Day 1 of a 21-day cycle with mandatory G-CSF on Day 8
  MTD/RP2D: 500 mg
[2]; human, in vivo
  Dose reduction due to AZD2811-related AEs, patients: 4.5%
  Dose reductions due to AZD2811-related AEs, patients: 17.2%
  Doses at which ANC counts <500 cells/μL were observed: ≥ 200 mg/cycle
  Doses that elicit a pharmacological response in bone marrow: > 200 mg/cycle
[2]; in vivo
  Neutropenia: not observed
  Patients with dose-limiting toxicities: Five
[2]; not considered related to AZD2811: cardiac arrest (Cohort 9), sepsis (Cohort 11)
  Deaths due to AEs on treatment: Two
